In PubChem BioAssay AID1963834 (Molecular Pharmacology Branch, DTP, NCI, 2024):
Values joined by “and” are separate entries in the source; they are usually repeats but may differ in a detail not shown here. Equal entries are not always repeated.

System: 873145-292-R-J1-PDC complex spheroid viability
Assay: Anticancer human tumor 873145-292-R-J1-PDC patient-derived renal clear cell carcinoma cell line growth inhibition [POLQ]
Settings: for viability, T/C: stronger effect = lower value
Method: Multicellular complex tumor spheroid response to Polymerase (POL) inhibitors (novobiocin, ART-558, RP6685) in combination with a variety of drugs and investigational agents in selected tumor cell lines
The POL inhibitors (novobiocin, ART-558, and RP6685) were evaluated both individually and in combination with standard of care and investigational anticancer small molecules within a complex spheroid model of solid tumors. . Complex spheroids include a stromal component modeled by human endothelial cells (HUVEC) and fibroblasts modeled by human mesenchymal stem cells (MSCs). The concentration ranges selected for each drug and investigational agent were based upon clinically achievable concentrations if the clinical Cmax of the agent was known.
Compounds. The drugs and investigational agents: novobiocin (NSC847541), ART-558 (NSC835418), RP-6685 (NSC848927), peposertib (NSC802822), ceralasertib (NSC780249), elimusertib (NSC800525), camonsertib (NSC841442), AZD-1390 (NSC803789), olaparib (NSC753686), talazoparib (NSC767125), rucaparib (NSC756644), sotorasib (NSC818433), MRTX-1133 (NSC836407), SN-38 (NSC673596), topotecan (NSC609699), epotoside (NSC141540), doxorubicin (NSC123127), gemcitabine (NSC613327), 5-fluorouracil (NSC19893), paclitaxel (NSC125973), vemurafenib (NSC761431), MSA-2 (NSC828583), SN-011 (NSC837082), adavosertib (NSC754352), prexasertib (NSC758257), carboplatin (NSC241240) and oxaliplatin (NSC266046), were obtained from the National Cancer Institute (NCI) Developmental Therapeutics Program Chemical Repository (21). The FDA-approved anticancer drug set is available from the Developmental Therapeutics Program at https://dtp.cancer.gov/organization/dscb/obtaining/. […] The stock solutions were prepared in dimethyl sulfoxide (DMSO, Sigma-Aldrich, St. Louis, MO, cat. D2650), except for the platinum compounds which were prepared in saline (Quality Biological, Gaithersburg, MD, cat. 114-055-101), at 800-fold the tested concentration and stored at -70 degrees C prior to their use. All drugs and investigational agents were tested over a range starting from a high concentration at or near the clinical Cmax and decreasing in half-log increments. If the clinical Cmax for an agent had not been determined, the highest concentration tested was 10 microM, except for SN-38, which was tested at a high concentration of 1 microM.
Cell Culture. All cells were maintained in an incubator at 37 degrees C and 5% CO2 with 95% humidity. The PDC lines were cultured according to standard operating procedures established by the NCI PDMR (https://pdmr.cancer.gov). Table 3 of the manuscript, lists the cell lines along with the number of the three cell types plated to form the mct-spheroids and media for tumor cell growth. After thawing, all PDC lines, except 997537-175-T-J1-PDC and 415267-285-R-J2-PDC, were cultured in Matrigel-coated flasks prepared with a working solution of 1X Ham's F-12 nutrient mix, without supplementation (Thermo Fisher Scientific, cat. 11765054), 100 U/mL penicillin-streptomycin (Thermo Fisher Scientific, cat. 15140122), and 2.5% Matrigel (Corning Inc., Corning, NY, cat. 354248) for the first three passages. The two PDC lines 997537-175-T-J1-PDC and 415267-285-R-J2-PDC were cultured on uncoated flasks. The 857933-349-R-J2-PDC line was cultured in 6C/Colon 1B media containing advanced DMEM/F-12 (Thermo Fisher Scientific, cat. 12634028), 10 mM HEPES (Thermo Fisher Scientific, cat. 15630080), 1X GlutaMAX supplement (Thermo Fisher Scientific, cat. 35050061), 0.1 mg/mL primocin (InvivoGen, San Diego, CA, cat. ant-pm-2), 10% defined fetal bovine serum, heat inactivated (HyClone Laboratories Inc., Logan, UT, cat. SH30070.03HI), 50% L-WRN conditioned media (ATCC, cat. CRL-3276), 1.25 mM N-Acetyl-L-cysteine (Sigma-Aldrich, cat. A9165), 10 mM nicotinamide (Sigma-Aldrich, cat. N0636), 1X B-27 supplement (Thermo Fisher Scientific, cat. 17504044), 1X N-2 supplement (Thermo Fisher Scientific, cat. […]

[1] = compound alone, run of 01/08/2024
[2] = compound alone, run of 01/19/2024
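Also: spheroids exposed to compounds for 7 days before viability readout.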
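For viability, T/C in this document: luminescence signal used as surrogate for viable cell content; 100% = DMSO vehicle control viability.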

SMILES	viability, T/C (compound 0.0316 µM)	viability, T/C (compound 0.1 µM)	viability, T/C (compound 0.316 µM)	viability, T/C (compound 1 µM)	viability, T/C (compound 3.16 µM)	viability, T/C (compound 10 µM)	IC50 (curve of compound)	IC50 [1] [µM]	viability, T/C (compound 0.00316 µM)	viability, T/C (compound 0.01 µM)	IC50 [2] [µM]	viability, T/C (compound 0.000316 µM)	viability, T/C (compound 0.001 µM)
CNCc1ccc(-c2[nH]c3cc(F)cc4c3c2CCNC4=O)cc1	108% and 93.3% and 101%	101% and 96% and 102%	102% and 103% and 97.2%	103% and 91.5% and 93.2%	94.7% and 95.1% and 93.3%	99.7% and 98% and 92.6%	> 10 µM	–	–	–	–	–	–
COC1C(OC(N)=O)C(O)C(Oc2ccc3c(O)c(NC(=O)c4ccc(O)c(CC=C(C)C)c4)c(=O)oc3c2C)OC1(C)C (configuration not stated)	93.7% [middle of 13 runs]	–	102% [middle of 13 runs]	99.8% [middle of 13 runs]	102% [middle of 13 runs]	98.3% [middle of 13 runs]	–	> 10	–	–	–	–	–
COc1cc(C2c3cc4c(cc3C(OC3OC5COC(C)OC5C(O)C3O)C3COC(=O)C23)OCO4)cc(OC)c1O (configuration not stated)	95.1% and 110% and 113%	94.9% and 101% and 95.3%	98.2% and 106% and 94.5%	95.1% and 95.9% and 102%	67% and 80.8% and 85.2%	56.9% and 68.2% and 66%	> 10 µM	–	–	–	–	–	–
COc1cc2cc(C(=O)CCC(=O)O)sc2cc1OC	112% and 99.5% and 94.5%	107% and 103% and 89.5%	96.3% and 97.8% and 104%	101% and 96.7% and 102%	98.9% and 105% (2×)	99.8% and 101% and 109%	> 10 µM	–	–	–	–	–	–
COc1ccc([C@@H](O)c2cc(-c3ncnc4cc(N5CCOCC5)ccc34)c(F)cc2Cl)nn1	70.5% and 97.3% and 103%	85% and 91.1% and 92.7%	86.9% and 84.3% and 87%	66.4% and 79.4% and 67.4%	56.9% and 52.8% and 57%	42.3% and 49.3% and 41.6%	5.01 µM and 7.26 µM and 5.06 µM	–	–	–	–	–	–
COc1cccc(OCCCN)c1-c1cc(Nc2cnc(C#N)cn2)n[nH]1	68.6% and 71.2% and 98.3%	60.8% and 74% and 71.8%	63.5% and 75.3% and 79.5%	72.4% and 84.5% and 73.1%	–	–	> 1 µM	–	103% and 116% and 101%	89.6% and 98.2% and 94.2%	–	–	–
COc1cccc2c1C(=O)c1c(O)c3c(c(O)c1C2=O)CC(O)(C(=O)CO)CC3OC1CC(N)C(O)C(C)O1 (configuration not stated)	79.5% and 101% and 88.3%	68.8% and 87.2% and 90.1%	70.1% and 92.2% and 85.7%	68.8% and 84.2% and 79.3%	3.4% and 5.11% and 4.22%	2.7% and 3.08% and 3.02%	1.39 µM and 1.65 µM and 1.57 µM	–	–	–	–	–	–
Cc1cccc(N(C)C(=O)C2C(O)CCN2c2nc(C)cc(C(F)(F)F)c2C#N)c1 (configuration not stated)	93.4% [middle of 13 runs]	97.4% [middle of 13 runs]	98.9% [middle of 13 runs]	99.9% [middle of 13 runs]	99.1% [middle of 13 runs]	95.5% [middle of 11 runs]	–	> 10	–	–	> 10	–	–
Cn1ncnc1[C@H]1c2n[nH]c(=O)c3cc(F)cc(c23)N[C@@H]1c1ccc(F)cc1	108% and 102% and 94.4%	101% and 97.9% and 88.9%	–	–	–	–	> 0.1 µM	–	91.2% and 96.3% and 103%	107% and 97.5% and 102%	–	99.5% and 108% and 99.7%	102% and 92.8% and 98%
Nc1ccc(C#CCN(C(=O)Cc2ncc(C(F)(F)F)cc2C(F)(F)F)c2ccc(F)cc2)nn1	–	101% [middle of 13 runs]	101% [middle of 13 runs]	95.2% [middle of 13 runs]	103% [middle of 13 runs]	108% [middle of 13 runs]	–	–	–	–	> 10	–	–
Nc1ccn(C2OC(CO)C(O)C2(F)F)c(=O)n1 (configuration not stated)	64.3% and 74.6% and 56.8%	55.4% and 57.4% and 46.8%	50.4% and 59.5% and 57.8%	58.3% and 53% and 55.6%	55.6% and 60% and 51.4%	49.7% and 56.7% and 41.6%	> 10 µM and 1.86 µM	–	–	–	–	–	–
O=C(Nc1ccc(O)c(NS(=O)(=O)c2ccc(F)cc2)c1)c1ccc(-c2ccccc2)cc1	115% and 109% and 103%	97.8% and 105% and 91.7%	113% and 107% and 99.3%	105% and 99.7% and 101%	105% (2×) and 108%	104% and 99.2% and 98.4%	> 10 µM	–	–	–	–	–	–
O=C(c1cc(Cc2n[nH]c(=O)c3ccccc23)ccc1F)N1CCN(C(=O)C2CC2)CC1	99.8% and 99.5% and 107%	96.2% and 91.1% and 106%	91.9% and 115% and 107%	104% and 97.4% (2×)	98.6% and 112% and 104%	91.7% and 95.1% and 102%	> 10 µM	–	–	–	–	–	–
O=c1[nH]cc(F)c(=O)[nH]1	90.7% and 101% and 99.7%	98.1% and 101% and 92.8%	93.2% and 92.1% and 94.4%	99.2% and 101% and 92%	107% and 102% and 96.4%	99.7% and 106% and 94.3%	> 10 µM	–	–	–	–	–	–
